Source: patent US4136194A, “2-Phenyl-2-carboxyethyl 1-(p-chlorobenzoyl)-5-methoxy-2-methyl-3-indolylacetate and process for preparation thereof” (SPOFA, United Pharmaceutical Works, priority 1976, dated 1979)
Read-outs that look alike come from different tables or passages of the source.

Key:
[1] = Acute oral toxicity in rats; conditions: rat, in vivo, single dose, female rats, 10 days, limits after the slash
Description: (§1) The 2-phenyl-2-carboxyethyl 1-(p-chlorobenzoyl)-5-methoxy-2-methyl-3-indolylacetate prepared in accordance with the invention was evaluated by comparison with 1-(p-chlorobenzoyl-5-methoxy-2-methyl-3-indolylacetic acid), the widely-used anti-inflammatory substance indomethacin. The two compounds were compared upon oral administration of their aqueous suspensions, with the addition of gum arabic, into the stomachs of test animals using a flexible metallic probe.
(§2) Acute toxicity was determined by administering both compounds in a single dose to female mice weighing 16-20 grams (groups of ten) and female rats weighing 130-150 grams (groups of ten). The mortality rate was followed for 10 days after administration of the dosage. The median lethal doses, LD50, are set forth in Table I below and were calculated by the method of J. Berkson, J. Am. Stat. Assoc. 50, 529, (1955).

[2] = tested on: mice; experiment: Analgesic activity, intraperitoneal irritation test with 3% acetic acid; format: in vivo, female mice; conditions: Mus musculus, read-out: ED50 (analgesic activity)
Description: as §1
Analgesic activity was evaluated by the intraperitoneal irritation test with 3% acetic acid (L. B. Wilkin et al., J. Pharm. 133, 400 (1961)) in female mice weighing 16-20 grams (groups of 12 animals).

[3] = tested on: kaolin oedema; experiment: Kaolin oedema inhibition; format: in vivo; conditions: 1 mg/kg p.o., one hour before kaolin, male rats, vs untreated control
Description: as §1
(§3) Anti-inflammatory activity was evaluated on kaolin oedema, carrageenin oedema and Freund adjuvant disease as standard model inflammatory syndromes in a group of six male rats.
The kaolin oedema of an extremity (J. Hillebrecht, Arzneim.-Forsch. 9, 625 (1969)) was produced in male rats weighing 130-150 grams by subplanatary injection of a 10% aqueous suspension of kaolin (0.1 ml). The indolylacetate of the invention and indomethacin were administered one hour before the injection of the suspension. The oedema size was measured 30 minutes, 3, 4.5 and 6 hours after the injection. The activity is conveniently expressed in percent of rate of inhibition in comparison with the untreated control group, the results being summarized in Table II below.

[4] = Acute oral toxicity in mice; conditions: mouse, in vivo, single dose, female mice, 10 days, limits after the slash
Description: as §1, §2

[5] = tested on: carrageenin oedema; experiment: Carrageenin oedema inhibition; format: in vivo; conditions: 1.5 mg/kg p.o., male rats, vs untreated control
Description: as §1, §3
The carrageenin oedema (Ch. Winter, Proc. Soc. Exp. Biol. Med. 111, 544 (1962)) was produced in male rats weighing 130-150 grams by subplanatary injection of a 0.5% carrageenin solution (0.1 ml). The dosage schedule and assay procedure as well as the results were identical with those described above for the kaolin oedema inhibition test.

[6] = tested on: gastric mucosa; format: in vivo; conditions: 8 mg/kg oral, starving female rats
Description: as §1
Gastrotoxicity (adversary effect on gastric mucosa, A. Robert, J. E. Nezamis, Proc. Soc. Exp. Biol. Med. 99, 443 (1958)) was monitored by oral administration of the compounds being compared by testing starving female rats of 250-300 grams body weight (group of six animals). The evaluation was made by estimating the frequency of gastric erosions and ulcers. The relative gastrotoxicity of the two compounds is expressed by the respective standard criteria, ulceration index, as indicated in Table IV below.

SMILES | LD50 at 240 h [1] [mg/kg] | ED50 ([2]; oral, female mice, 3% acetic acid i.p.) [mg/kg] | Kaolin oedema inhibition [3] [%] | LD50 at 240 h [4] [mg/kg] | Carrageenin oedema inhibition [5] [%] | ED50 ([2]; po) [mg/kg] | Ulceration Index [6]
COc1ccc2c(c1)c(CC(=O)OCC(C(=O)O)c1ccccc1)c(C)n2C(=O)c1ccc(Cl)cc1 (centres unmarked) [Compound of Invention, 2-phenyl-2-carboxyethyl 1-(p-chlorobenzoyl)-5-methoxy-2-methyl-3-indolylacetate] | 140 | 24.5 | 16 | 190 | 15 | – | –
COc1ccc2c(c1)c(CC(=O)O)c(C)n2C(=O)c1ccc(Cl)cc1 [Indomethacin, 1-(p-chlorobenzoyl)-5-methoxy-2-methyl-3-indolylacetic acid] | 25 | – | 19 | 18 | 14 | 14.5 | 300
